Key:
[1] = tested on: blood-glucose concentration; assay: ED30 oral hypoglycemic dose in mice (Table 2); assay type: in vivo
Description: (§1) The hypoglycemic activity of N-{4-[2-(pyrazole-1-carbonamide)-ethyl]-benzenesulphonyl}-ureas prepared according to the present invention can be noticed after their oral administration to mice, rats, rabbits and people and when determining the glucose concentration in blood with a known enzymatic method using glucose oxidase.
(§2) (Table 2). […] It has been observed that even 9 hours after the administration of one dose of SPC-5002 to rats, the glucose level in blood was decreased, whereas in the case of Glibornuride the glucose level comes back to its normal value in 6 hours from the time of the administration.

[2] = tested on: blood-glucose concentration; assay: Blood-glucose time course up to 24 hours in rabbits (Table 4); assay type: in vivo; conditions: oral 5 mg/kg
Description: The hypoglycemic activity of N-{4-[2-(pyrazole-1-carbonamide)-ethyl]-benzenesulphonyl}-ureas prepared according to the present invention can be noticed after their oral administration to mice, rats, rabbits and people and when determining the glucose concentration in blood with a known enzymatic method using glucose oxidase. […]
(§3) The comparison of SPC-5002 and Glibornuride effect on changes in
concentration of rabbits in time up to 24 hours from the moment of the
in an oral dose containing 5 mg/kg body weight

[3] = tested on: free fatty acids concentration; assay: Free fatty acids in normal men volunteers (Table 7); assay type: in vivo; conditions: oral 5 mg SPC-5002 or 12.5 mg Glibornuride
Description: (§4) When administered to normal men volunteers it has been stated that 60 minutes after the administration of SPC-5002 a 5 mg oral dose causes the decrease in blood-glucose of 28% in comparision to the starting value and after 90 minutes it reaches 33% (Table 7). Whereas Glibornuride employed in a dose 2.5 times as big on peak of its activity decreases the glucose blood level only of 19%. It can clearly be noticed that there is a positive correlation between the glycemic and insulin level curves. Both examined preparations cause a significant decrease in free fatty acids in blood. […] 60 and 90 minutes after the SPC-5002 administration, the blood-glycose level is decreased to 33 and 52% while in the Placebo group it is maintained in the range of 13-14%.
(§5) The comparison of glucose, insulin and free fatty acids concentration in
(§6) normal men after the oral administration of 5 mg of SPC-5002 or 12.5 mg

[4] = tested on: calcium transmission in mitochondria of a rat's liver; assay: Calcium transmission to rat liver mitochondria; assay type: biochemical; conditions: for % of inhibition, calcium transmission: medium with CaCl 300 nmoles/ml
Description: Sucrose 170mM, KCl 10 mM, MgCl2 […], K2 HPO 5 mM, EGTA 0.01 mM
2-oxoglutaran 2 mM, ADP 1 mM, mitochondria
protein 4 mg/m. Temperature 25° C.
of hydrogen ion consumption. The calcium transmission to mitochondria was
studied with two methods; in a continuous way with a Radiometer calcium
electrode type F2112 or with an isotopic method.
*The medium contained Ca Cl 300 nmoles/ml.

[5] = tested on: oxidizing phosphorylation in mitochondria of a rat's liver; assay: Oxidizing phosphorylation of rat liver mitochondria; assay type: biochemical
Description: 2-oxoglutaran 2 mM, ADP 1 mM, mitochondria | protein 4 mg/m. […] The | oxidizing phosphorylation speed was determined by means of the measuremen | of hydrogen ion consumption. The calcium transmission to mitochondria was […]

[6] = tested on: blood-glucose concentration; assay: Decrease in blood-glucose concentration in rats after oral dose (Table 1; ED30 rats Table 2); assay type: in vivo; conditions: Rattus norvegicus, oral, read-out: Effective oral doses ED30
Source text: as §1
The exemplary comparison of effective doses (ED30) and the effect of oral dose size of the compounds prepared according to the present invention with Glibornuride, which is distinguished by its high effectiveness and good tolerance when administered to people, on the glucose concentration in the blood of rats, is given in Table 1.

[7] = tested on: oxygen consumption in mitochondria of a rat's liver; assay: Oxygen consumption of rat liver mitochondria; assay type: biochemical
Description: 2-oxoglutaran 2 mM, ADP 1 mM, mitochondria | protein 4 mg/m. […] The

glucose concentration = assay: Blood glucose in normal men volunteers (Table 7); assay type: in vivo; conditions: for Glucose concentration: oral 5 mg SPC-5002 or 12.5 mg Glibornuride
Description: as §1, §4, §5, §6

insulin concentration = assay: Insulin in normal men volunteers (Table 7); assay type: in vivo; conditions: oral 5 mg SPC-5002 or 12.5 mg Glibornuride
Description: as §4, §5, §6

[8] = tested on: blood-glucose concentration; assay: ED30 oral hypoglycemic dose in rabbits (Table 2); assay type: in vivo; conditions: Oryctolagus cuniculus, read-out: Effective oral doses ED30
Description: as §1, §2

[9] = tested on: blood-glucose concentration; assay: Blood-glucose time course up to 24 hours in rats (Table 3); assay type: in vivo; conditions: for glucose concentration in blood, average: oral 4 mg/kg
Description: as §1, §2, §3
concentration of rats in time up to 24 hours from the moment of the
in an oral dose containing 4 mg/kg body weight

## Cc1ccc(S(=O)(=O)NC(=O)N[C@H]2[C@H]3CC[C@@](C)([C@H]2O)C3(C)C)cc1 [Glibornuride, N-(p-toluenesulphonyl)-N'-(2-endo-hydroxy-3-endo-bornyl)-urea, reference compound]
[1]
  ED30 relative to SPC-5002: almost three times as big as for SPC-5002
[1]; Mus musculus, oral, read-out: Effective oral doses ED30
  ED30: 5.2 mg/kg
[2]; 0 h
  glucose concentration in blood, average: 74 mg/100 cc
[2]; 0.5 h
  glucose concentration in blood, average: 62 mg/100 cc
[2]; 1 h
  glucose concentration in blood, average: 63 mg/100 cc
[2]; 3 h
  % of decrease /-/ or increase /+/ of blood glucose: 0%
  glucose concentration in blood, average: 74 mg/100 cc
[2]; 6 h
  glucose concentration in blood, average: 75 mg/100 cc
[2]; 9 h
  glucose concentration in blood, average: 75 mg/100 cc
[2]; 24 h
  glucose concentration in blood, average: 78 mg/100 cc
[3]; 0 mins (empty stomach)
  Free fatty acids concentration: 0.76 mEq/1000 cc
[3]; 30 mins
  Free fatty acids concentration: 0.58 mEq/1000 cc
[3]; 60 mins
  Free fatty acids concentration: 0.46 mEq/1000 cc
[3]; 90 mins
  Free fatty acids concentration: 0.48 mEq/1000 cc
[3]; 120 mins
  Free fatty acids concentration: 0.51 mEq/1000 cc
[3]; 180 mins
  Free fatty acids concentration: 0.52 mEq/1000 cc
[4]; concentration 0.5 n M
  Calcium transmission / Oxide consumption (ratio of inhibition): 2.36
  % of inhibition, calcium transmission: 52%
[4]; concentration 1.0 n M
  Calcium transmission / Oxide consumption (ratio of inhibition): 1.60
  % of inhibition, calcium transmission: 76%
[4]; rat liver mitochondria
  Ki: 490 µM
  preference of inhibition: calcium transmission versus oxidizing processes: preferential inhibiting of calcium transmission
[5]; concentration 0.5 n M
  % of inhibition, oxidizing phosphorylation: 32%
[5]; concentration 1.0 n M
  % of inhibition, oxidizing phosphorylation: 59%
[5]; rat liver mitochondria
  Ki: 760 µM
[6]
  ED30: 3.8 mg/kg
[7]; concentration 0.5 n M
  % of inhibition, oxygen consumption: 22%
[7]; concentration 1.0 n M
  % of inhibition, oxygen consumption: 47%
[7]; rat liver mitochondria
  Ki: 1150 µM
Glucose concentration; dose 2.5 times that of SPC-5002 (12.5 mg)
  decrease in glucose blood level at peak of activity: 19%
Glucose concentration; 0 mins (empty stomach)
  Glucose concentration: 91.0 mg/100 cc
Glucose concentration; 30 mins
  Glucose concentration: 87.0 mg/100 cc
Glucose concentration; 60 mins
  Glucose concentration: 80.0 mg/100 cc
Glucose concentration; 90 mins
  Glucose concentration: 74.0 mg/100 cc
Glucose concentration; 120 mins
  Glucose concentration: 75.0 mg/100 cc
Glucose concentration; 180 mins
  Glucose concentration: 76.0 mg/100 cc
Insulin concentration; 0 mins (empty stomach)
  Insulin concentration: 3.6 μU/cc
Insulin concentration; 30 mins
  Insulin concentration: 4.2 μU/cc
Insulin concentration; 60 mins
  Insulin concentration: 6.2 μU/cc
Insulin concentration; 90 mins
  Insulin concentration: 5.2 μU/cc
Insulin concentration; 120 mins
  Insulin concentration: 6.4 μU/cc
Insulin concentration; 180 mins
  Insulin concentration: 4.4 μU/cc
[8]
  ED30: 7.6 mg/kg
[9]; one dose
  duration of decreased blood glucose after one dose: 6 h
[9]; 0 h
  glucose concentration in blood, average: 68 mg/100 cc
[9]; 1 h
  glucose concentration in blood, average: 48 mg/100 cc
[9]; 3 h
  glucose concentration in blood, average: 47 mg/100 cc
[9]; 6 h
  glucose concentration in blood, average: 65 mg/100 cc
[9]; 9 h
  glucose concentration in blood, average: 74 mg/100 cc
[9]; 24 h
  glucose concentration in blood, average: 77 mg/100 cc
